What was measured:
[1] = biological target: T1, Kv1.1/Kv1.1-E283K/Kv1.2 channels (Homo sapiens, UniProt Q09470, E283K); test: TEVC of oocytes co-injected 1:1:2 Kv1.1:Kv1.1-E283K:Kv1.2 cRNA; assay type: cell-based; settings: even at 0.1 µM
T1 construct: expressed in transfected cells; host or cells: Xenopus laevis oocytes co-injected 1:1:2 Kv1.1:Kv1.1-E283K:Kv1.2 cRNA
Text: (§1) Kv1.1 α subunits form heteromeric tetramers with other Kv1 subfamily α subunits, including Kv1.2, in the […] region of axons and some terminals, in the hippocampus (perforant input from entorhinal cortex, mossy fiber projections from granule cells to CA3, and CA3 axon collaterals)[7]–[11]. We therefore tested effects of gallic acid on Kv1.1/Kv1.2 heteromers generated in oocytes by co-injection of 1:1:2 parts Kv1.1:Kv1.1-E283K:Kv1.2 or Kv1.1:Kv1.1-L155P:Kv1.2 cRNA to approximate the Kv1.1/Kv1.2 heteromeric channel composition in EA1 patients heterozygous for either mutant KCNA1 allele. […]
(§2) We performed TEVC at room temperature using an OC-725C amplifier (Warner Instruments, Hamden, CT) and pClamp10 software (Molecular Devices, Sunnyvale, CA) 2 days after cRNA injection as described in the section above. […] We recorded currents in response to voltage pulses between −80 mV and +40 mV at 10 or 20 mV intervals from a holding potential of −80 mV, to yield current-voltage relationships and examine activation kinetics. To calculate the voltage dependence of activation (V0.5), tail currents were recorded at a voltage pulse of −50 mV immediately following prepulse voltages between −80 mV and +40 mV. We analyzed data using Clampfit (Molecular Devices) and Graphpad Prism software (GraphPad, San Diego, CA, USA), stating values as mean ± SEM. […]

[2] = biological target: T2, Kv1.1/Kv1.1-L155P/Kv1.2 channels (Homo sapiens, UniProt Q09470, L155P); test: TEVC of oocytes co-injected 1:1:2 Kv1.1:Kv1.1-L155P:Kv1.2 cRNA; assay type: cell-based; settings: at 0.1 µM and higher
T2 construct: expressed in transfected cells; host or cells: Xenopus laevis oocytes co-injected 1:1:2 Kv1.1:Kv1.1-L155P:Kv1.2 cRNA
T2 sequence (Q09470 whole entry, stated change not applied): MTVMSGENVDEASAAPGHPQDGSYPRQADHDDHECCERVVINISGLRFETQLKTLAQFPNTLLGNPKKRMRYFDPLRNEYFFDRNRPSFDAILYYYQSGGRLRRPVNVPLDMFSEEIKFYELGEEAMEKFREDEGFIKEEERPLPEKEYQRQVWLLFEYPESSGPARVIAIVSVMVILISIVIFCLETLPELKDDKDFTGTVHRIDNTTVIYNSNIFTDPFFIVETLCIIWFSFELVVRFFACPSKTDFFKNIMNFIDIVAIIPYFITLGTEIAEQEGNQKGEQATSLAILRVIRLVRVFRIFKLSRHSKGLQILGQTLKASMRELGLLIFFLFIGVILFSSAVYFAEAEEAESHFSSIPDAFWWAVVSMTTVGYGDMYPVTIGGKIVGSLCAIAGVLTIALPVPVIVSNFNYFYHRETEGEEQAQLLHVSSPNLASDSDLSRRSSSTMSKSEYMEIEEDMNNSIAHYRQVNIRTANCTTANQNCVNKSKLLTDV
T2 sequence (Q09470 whole entry L155P): as the sequence (Q09470 whole entry, stated change not applied) above, with L155P counted along it
T2 sequence (P16389 whole entry partner): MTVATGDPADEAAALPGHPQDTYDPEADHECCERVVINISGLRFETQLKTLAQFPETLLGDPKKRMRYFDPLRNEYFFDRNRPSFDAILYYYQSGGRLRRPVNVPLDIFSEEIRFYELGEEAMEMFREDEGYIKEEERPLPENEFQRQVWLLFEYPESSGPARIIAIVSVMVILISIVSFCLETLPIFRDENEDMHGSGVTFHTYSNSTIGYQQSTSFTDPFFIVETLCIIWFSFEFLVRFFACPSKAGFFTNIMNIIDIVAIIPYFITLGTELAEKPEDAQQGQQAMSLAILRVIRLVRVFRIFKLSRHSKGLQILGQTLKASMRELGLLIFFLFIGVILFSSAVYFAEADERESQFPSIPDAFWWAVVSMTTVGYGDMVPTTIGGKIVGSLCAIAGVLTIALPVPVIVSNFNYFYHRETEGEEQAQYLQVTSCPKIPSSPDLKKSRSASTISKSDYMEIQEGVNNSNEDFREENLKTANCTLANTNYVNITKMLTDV
Text: as §1, §2

T1 sequence (Q09470 whole entry, stated change not applied): as the sequence (Q09470 whole entry, stated change not applied) above
T1 sequence (Q09470 whole entry E283K): as the sequence (Q09470 whole entry, stated change not applied) above, with E283K counted along it
T1 sequence (P16389 whole entry partner): as the sequence (P16389 whole entry partner) above

## O=C(O)c1cc(O)c(O)c(O)c1 [gallic acid]
[1]
  rescue of channel activity: highly effective at rescuing
[2]
  rescue of channel activity: highly effective at rescuing

— article PMC10244465, “Native American ataxia medicines rescue ataxia-linked mutant potassium channel activity via binding to the voltage sensing domain” (Nature Communications, 2023)
